Here are results for 5 compounds from USRE34387E, “Method for restoring depleted purine nucleotide pools” (priority 1988, dated 1993).

In data set [1] the target is T1, adenylosuccinate lyase (cardiac muscle) (Mus musculus, UniProt P54822).
T1 construct: the hearts and gastrocnemius muscles were excised, weighed, and homogenized to a slurry; from tissue; host or cells: mouse heart (C57BL/6J), dialyzed 10,000×g supernatant
T1 sequence (P54822 2-484 limits assumed): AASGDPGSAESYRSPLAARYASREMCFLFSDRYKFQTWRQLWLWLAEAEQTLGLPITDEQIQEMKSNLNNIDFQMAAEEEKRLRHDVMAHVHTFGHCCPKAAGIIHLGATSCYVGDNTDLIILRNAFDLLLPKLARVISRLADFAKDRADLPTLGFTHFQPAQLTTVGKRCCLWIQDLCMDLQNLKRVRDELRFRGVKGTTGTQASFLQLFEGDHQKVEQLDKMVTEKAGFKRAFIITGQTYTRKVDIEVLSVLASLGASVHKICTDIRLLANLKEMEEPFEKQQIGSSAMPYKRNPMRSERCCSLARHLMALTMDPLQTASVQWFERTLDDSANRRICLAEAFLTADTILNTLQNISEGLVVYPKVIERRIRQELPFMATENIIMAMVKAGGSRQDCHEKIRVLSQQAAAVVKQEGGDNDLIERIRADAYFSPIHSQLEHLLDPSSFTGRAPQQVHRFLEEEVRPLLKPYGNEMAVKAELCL
The note with it: bifunctional enzyme; cited from earlier work.

The test system of data set [2] is cardiovascular system. The note with it: cited from earlier work; for hemodynamic effects on the cardiovascular system: purine precursors previously used to restore ATP.
Data set [3] deals with T2, adenylosuccinate lyase (skeletal muscle) (Mus musculus, UniProt P54822).
T2 construct: the hearts and gastrocnemius muscles were excised, weighed, and homogenized to a slurry; from tissue; host or cells: mouse gastrocnemius muscle (C57BL/6J), dialyzed 10,000×g supernatant
T2 sequence (P54822 2-484 limits assumed): T1 sequence (P54822 2-484 limits assumed)
Briefly: Adenylosuccinate lyase assay, skeletal muscle enzyme. It is filed as biochemical, C57BL/6J mice. To be noted: pH 7.4, 25° C., 4 enzyme preparations, read-out: apparent Km of adenylosuccinate lyase for adenylosuccinate. The procedure:
(§1) Preparation and Assay of Adenylosuccinate Lyase--Six-week-old C57BL/6J mice were killed, and the hearts and gastrocnemius muscles were excised, weighed, and homogenized to a slurry in 4 volumes of 50 mM Tris-HCl, pH 7.4 at 25° C. containing 1 mM EDTA and 1 mM β-mercaptoethanol in a TenBroeck glass homogenizer. The homogenate was centrifuged at 10,000×g for 15 min and the supernatant was dialyzed against 1,000 volumes of the extraction buffer for 2 h at 4° C. The lyase activity was partially stabilized by the addition of EDTA and β-mercaptoethanol, but some activity was lost even on storage at -70° C.
(§2) The assays were carried out at pH 7.4 were reaction mixtures that contained 50 mM Tris-HCl buffer, 1 mM EDTA, 1mM β-mercaptoethanol, 20 μM adenylosuccinate, and the enzyme extract (protein concentration, 0.13-0.20 mg/ml). The decrease in absorbance at 280 nm was measured using a Gilford recording spectrophotometer. All assays were done at 25° C. and were linear with respect to time of incubation and with the amount of protein in extract added to the assay.
(§3) These are average values for experiments with 4 separate enzyme preparations. The experimental points in the double reciprocal plots were fitted to the best line by the method of least squares with all points being weighted equally.

Data set [4] concerns the target T1, adenylosuccinate lyase (cardiac muscle). Briefly: Adenylosuccinate lyase assay, cardiac muscle enzyme. It is filed as biochemical, C57BL/6J mice. The note with it: pH 7.4, 25° C., 4 enzyme preparations, read-out: apparent Km of adenylosuccinate lyase for adenylosuccinate. The method, then: as §1, §2, §3

Each structure is given as a SMILES string.

As for `NC(=O)c1ncn([C@@H]2O[C@H](COP(=O)(O)O)[C@@H](O)[C@H]2O)c1N` [AICAR, 5-Amino-4-imidazolecarboxamide Ribotide], in data set [1], the “effect on both lyase activities of adenylosuccinate lyase” value is listed as “inhibited by AICAR”.
For `Nc1ncnc2c1ncn2[C@@H]1O[C@H](CO)[C@@H](O)[C@H]1O` [adenosine], in data set [2] (adenosine administration), the “hemodynamic status of the animal” value is given as “profound changes”. Besides, in data set [2], the “hemodynamic effects on the cardiovascular system” value (“hemodynamic effects” below) is recorded as “deleterious hemodynamic effects”.
As usually defined, the Km is the substrate concentration at which the rate is half of its maximum. Take `O=C(O)C[C@H](Nc1ncnc2c1ncn2[C@@H]1O[C@H](COP(=O)(O)O)[C@@H](O)[C@H]1O)C(=O)O` [adenylosuccinate]: the results for the Km in data set [3] and in data set [4] were 4.5 ± 1.5 µM and 2200 ± 300 nM, respectively.
For `O=c1[nH]cnc2nc[nH]c12` [hypoxanthine], in data set [2], the “hemodynamic effects” value is “deleterious hemodynamic effects”.
For `OC[C@H]1O[C@@H](n2cnc3c(O)ncnc32)[C@H](O)[C@@H]1O` [inosine], the “hemodynamic effects” value in data set [2] is on record as “deleterious hemodynamic effects”.
